The record followed here is patent US20240043448A1, “Small Molecule Inhibitors of KRAS G12C Mutant” (Merck Sharp & Dohme LLC, priority 2019, published 2024).

Molecules are shown by their SMILES. Read-outs that look alike come from different tables or passages of the source.

Assay [1] has as its target Biotinylated KRAS G12C protein (Homo sapiens (Human), UniProt P01116, C118S/C51S/C80L/G12C). Briefly: SOS-catalyzed nucleotide exchange assay (TR-FRET). Format: biochemical. The following applies: in vitro apparent potency; preincubation time of 60 minutes prior to addition of SOS. The procedure: The SOS-catalyzed nucleotide exchange assay utilizes a preformed complex of recombinant biotinylated KRAS protein containing G12C/C51S/C80L/C118S mutations (183 amino acids; biotin on K10; leader sequence which is an AviTag; referred to as SEQ ID NO: 1 or “Biotinylated KRAS G12C protein” hereafter), Bodipy-GDP, and Terbium-streptavidin. Compounds are added to this complex and then after incubation for 60 minutes, the mixture is treated with recombinant SOS protein and unlabeled GTP. Small molecule inhibitors stabilize the Bodipy-GDP complex whereas the untreated protein rapidly exchanges Bodipy-GDP for unlabeled GTP resulting in reduced TR-FRET signal.
Biotinylated KRAS G12C protein (SEQ ID NO: 1) is diluted to 2 μM in an EDTA buffer (20 mM HEPES, 150 mM sodium chloride, 10 mM EDTA, and 0.01% Tween) and incubated at room temperature for one hour. This mixture is then further diluted to 90 nM in an assay buffer (20 mM HEPES, 150 mM sodium chloride, 10 mM magnesium chloride, and 0.005% Tween) containing 15 nM of Terbium-Streptavidin (Invitrogen, catalog #PV3577) and 900 nM of Bodipy-GDP and incubated at room temperature for six hours. This solution is referred to as Biotinylated KRAS G12C mixture.
Each test compound (10 mM stock in DMSO) is diluted in DMSO to make a 10-point, 3-fold dilution series in a 384-well low dead volume microplate (Labcyte, catalog #LP-0200). Once titrations are made, 10 nL of the diluted compounds is acoustically dispensed into a 384-well plate (Corning, catalog #3820) using an Echo 550 (Labcyte).
Each well of the plate receives 3 μL Biotinylated KRAS G12C mixture that had been incubating for six hours and 3 μL of assay buffer using a BioRAPTR (Beckman Coulter) and is incubated at room temperature for 60 minutes. Each well then receives 3 μL of 240 nM recombinant human SOS protein and 9 mM GTP (Sigma, G8877) in assay buffer and is incubated at room temperature for 60 minutes.
The time-resolved fluorescence resonance energy transfer signal of the plate is measured on an Envision (PerkinElmer) plate reader: Excitation filter=340 nm; emission1=495 nm; emission2=520 nm; dichroic mirror=D400/D505; delay time=100 μs. The signal of each well is determined as the ratio of the emission at 520 nm to that at 495 nm. Percent effect of each well is determined after normalization to control wells containing DMSO (no effect) or a saturating concentration of inhibitor (max effect). The apparent effect as a function of compound concentration is fit to a four parameter logistic equation.

Assay [2] concerns phospho-ERK. As to the kind of experiment: Cellular phospho-ERK assay. The following applies: NCI-H358 cells, 2 hour incubation, ratio of p-Erk vs total Erk, read-out: IC50 (nM) pERK (Cell). Format: cell-based. The procedure: NCI-H358 cells (ATCC® CRL-5807™) were cultured in T150 flask in growth medium (RPMI medium 1640-GlutaMAX™-I (ThermoFisher Scientific 61870) containing 10% fetal bovine serum (ThermoFisher Scientific 10091148)). The cells were harvested in growth medium after TrypLE (ThermoFisher scientific 12604021) digestion and were seeded in a 384-well collagen coated cell culture plate (Corning 356702) at a density of 15,000 cells/well, and incubated at 37° C., 5% CO2 overnight. The compound dose-response titrations were prepared and appropriate amounts of compounds were dispensed in a 384-well intermediate plate using an Echo 550 liquid handler. RPMI medium 1640-GlutaMAX™-I were added to the intermediate plate and transferred to 384-well cell culture plate, which was incubated at 37° C., 5% CO2 for 2 hours. After removal of medium from the plate, cells were lysed in lysis buffer from Alpha SureFire® Ultra™ Multiplex p-Erk and total Erk assay kit (PerkinElmer MPSU-PTERK) containing Halt™ Protease and Phosphotase inhibitor cocktail (ThermoFisher Scientific 78446) at room temperature with constant shaking at 300 rpm for 30 minutes. The cell lysates were then transferred to OptiPlate-384 plate (PerkinElmer 6005620) and the phosphorylation of Erk and total Erk levels were detected by Alpha SureFire Ultra Multiplex p-Erk kit (PerkinElmer MPSU-PTERK) following the manufacturer's protocol. Assay plates were read on an EnVision Multimode Plate Reader (PerkinElmer), and the ratio of p-Erk vs total Erk in each well was used as the final readout. Dose response curves were analyzed using a 4-parameter logistic model to calculate IC50 values using spotfire software.

Biotinylated KRAS G12C protein, sequence (P01116 other isoform, or with tags, fused parts or gaps, stated change not applied): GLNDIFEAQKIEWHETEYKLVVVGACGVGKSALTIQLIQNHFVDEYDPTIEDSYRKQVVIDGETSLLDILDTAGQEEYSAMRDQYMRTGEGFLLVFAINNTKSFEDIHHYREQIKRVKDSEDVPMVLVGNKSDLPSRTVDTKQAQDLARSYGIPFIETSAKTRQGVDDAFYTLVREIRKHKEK

As usually defined, the IC50 is the point on the concentration scale where inhibition reaches its midpoint. Regarding `C=CC(=O)N1CC2CCC1CN2c1nc(=O)n2c3nc(c(F)cc13)-c1c(F)cccc1OCCCc1ccnc(C(C)C)c1-2` (stereo not shown) [Example 106, 17,20-difluoro-4-oxo-6-(propan-2-yl)-2-[5-(prop-2-enoyl)-2,5-diazabicyclo[2.2.2]octan-2-yl]-11,12-dihydro-4H,10H-1,18-ethenopyrido[4,3-e]pyrimido[1,6-g][1,7,9] benzoxadiazacyclododecin-4-one], the half-maximal inhibitory concentration (IC50) in assay [1] was 2550 nM; in assay [2] it was 5620 nM.
As to `C=CC(=O)N1CCN(c2nc(=O)n3c4nc(c(F)cc24)-c2cccc4cnn(c24)CCCCc2ccnc(C(C)C)c2-3)[C@@H](C)C1` [Example 6, 22-fluoro-2-[(2S)-2-methyl-4-(prop-2-enoyl)piperazin-1-yl]-6-(propan-2-yl)-10,11,12,13-tetrahydro-4H-1,20-(ethanediylidene)-pyrido[4′,3′:12,13]pyrimido-[1′,6′:1,2][1,3,7]triazacyclo-tridecino[5,6,7-hi]indazol-4-one], the 50% inhibitory concentration (IC50) is 9.2 nM in assay [1] and 45 nM in assay [2] (Homo sapiens, NCI-H358, 2 h).
Regarding `C=CC(=O)N1CC(C)N(c2nc(=O)n3c4nc(c(F)cc24)-c2c(F)ccc(F)c2OCC(F)(F)CCc2ccnc(C(C)C)c2-3)CC1C` [Example 55, (5aRa,18aRa)-2-[(2S,5R)-2,5-dimethyl-4-(prop-2-enoyl)piperazin-1-yl]-12,12,15,18,21-pentafluoro-6-(propan-2-yl)-10,11,12,13-tetrahydro-4H-1,19-(ethanediylidene)pyrido[4,3-f]pyrimido[1,6-h][1,8,10] benzoxadiazacyclotri-decin-4-one], the 50% inhibitory concentration (IC50) is 2.7 nM in assay [1] and 29 nM in assay [2] (Homo sapiens, NCI-H358, 2 h).
For `C=CC(=O)N1C[C@H](C)N(c2nc(=O)n3c4nc(c(Cl)cc24)-c2c(F)cccc2OCCCc2ccnc(C(C)C)c2-3)C[C@H]1C` [Example 63, 20-chloro-2-[(2S,5R)-2,5-dimethyl-4-(prop-2-enoyl)piperazin-1-yl]-17-fluoro-6-(propan-2-yl)-11,12-dihydro-4H,10H-1,18-(ethanediylidene)pyrido[4,3-e]pyrimido[1,6-g][1,7,9] benzoxadiazacyclodo-decin-4-one], the IC50 in assay [1] was 3.6 nM; in assay [2] (Homo sapiens, NCI-H358, 2 h), 2 nM.
Take `C=CC(=O)N1C[C@H](C)N(c2nc(=O)n3c4nc(c(F)cc24)-c2c(F)cccc2OCCOc2c(Cl)cnc(C(C)C)c2-3)C[C@H]1C` [Example 70, 9-chloro-2-[(2S,5R)-2,5-dimethyl-4-(prop-2-enoyl)piperazin-1-yl]-17,20-difluoro-6-(propan-2-yl)-11,12-dihydro-4H-1,18-(ethanediylidene)pyrido[4,3-e]pyrimido[1,6-g][1,4,7,9]benzodioxadiazacyclododecin-4-one]: the 50% inhibitory concentration (IC50) in assay [1] amounted to 1.8 nM; in assay [2], 19 nM.
`C=CC(=O)N1CCN(c2nc(=O)n3c4nc(c(F)cc24)-c2ccnn2CCCCc2ccnc(C(C)C)c2-3)[C@@H](C)C1` [Example 5, 20-fluoro-2-[(2S)-2-methyl-4-(prop-2-enoyl)piperazin-1-yl]-6-(propan-2-yl)-10,11,12,13-tetrahydro-4H-1,18-(ethanediylidene)-pyrazolo[5,1-e]pyrido-[4,3-k]pyrimido[1,6-a]-[1,3,6]triazacyclododecin-4-one]: the 50% inhibitory concentration (IC50) in assay [1] was 898 nM; in assay [2] (Homo sapiens, NCI-H358, 2 h), 4440 nM.
As to `C=CC(=O)N1CCN(c2nc(=O)n3c4nc(c(F)cc24)-c2c(F)cccc2OCCCCc2ccnc(C(C)C)c2-3)[C@H](C)C1` [Example 4b, 18,21-Difluoro-2-[(2S)-2-methyl-4-(prop-2-enoyl)piperazin-1-yl]-6-(propan-2-yl)-10,11,12,13-tetrahydro-4H-1,19-ethenopyrido[4,3-f]pyrimido[1,6-h][1,8,10]benzoxadiazacyclotridecin-4-one], the IC50 turned out to be 6890 nM in assay [1] and 1160 nM in assay [2].
Regarding `C=CC(=O)N1C[C@H](C)N(c2nc(=O)n3c4nc(c(F)cc24)-c2c(F)ccc(F)c2OC[C@H](C)Oc2ccnc(C(C)C)c2-3)C[C@H]1C` [Example 94, (11S)-2-[(2S,5R)-2,5-dimethyl-4-(prop-2-enoyl)piperazin-1-yl]-14,17,20-trifluoro-11-methyl-6-(propan-2-yl)-11,12-dihydro-4H-1,18-ethenopyrido[4,3-e]pyrimido[1,6-g][1,4,7,9]benzodioxadiazacyclododecin-4-one], the IC50 is 3.4 nM in assay [1] and 42 nM in assay [2].
For `C=CC(=O)N1CCN(c2nc(=O)n3c4nc(c(F)cc24)-c2c(F)cccc2CCOCCc2ccnc(C(C)C)c2-3)[C@H](C)C1` [Example 17b, 18,21-difluoro-2-[(2S)-2-methyl-4-(prop-2-enoyl)piperazin-1-yl]-6-(propan-2-yl)-10,11,13,14-tetrahydro-4H-1,19-ethenopyrido[3,4-e]pyrimido[6,1-c][9,2,4]benzoxadiazacyclotridecin-4-one] the same measures were 370 nM and 1180 nM.
`C=CC(=O)N1C[C@H](C)N(c2nc(=O)n3c4nc(c(F)cc24)-c2c(F)c(F)cc(F)c2OCCCc2ccnc(C(C)C)c2-3)C[C@H]1C` [Example 77, 2-[(2S,5R)-2,5-dimethyl-4-(prop-2-enoyl)piperazin-1-yl]-14,16,17,20-tetrafluoro-6-(propan-2-yl)-11,12-dihydro-4H,10H-1,18-ethenopyrido[4,3-e]pyrimido[1,6-g][1,7,9]benzoxadiazacyclododecin-4-one]: the concentration for half-maximal inhibition (IC50) in assay [1] was 2.4 nM; in assay [2] (Homo sapiens, NCI-H358, 2 h), 45 nM.
In the same order, the values of `C=CC(=O)N1CCN(c2nc(=O)n3c4nc(c(F)cc24)-c2c(ccc(F)c2F)OCC(F)(F)CCc2ccnc(C(C)C)c2-3)CC1` [Example 65, 12,12,17,18,21-pentafluoro-6-(propan-2-yl)-2-[4-(prop-2-enoyl)piperazin-1-yl]-10,11,12,13-tetrahydro-4H-1,19-(ethanediylidene)pyrido[4,3-f]pyrimido[1,6-h][1,8,10] benzoxadiazacyclotri-decin-4-one] are 2.6 nM and 15 nM.
On to `C=CC(=O)N1CCN(c2nc(=O)n3c4nc(c(F)cc24)-c2c(F)cccc2CCCOc2ccnc(C(C)C)c2-3)[C@@H](C)C1` (single isomer, unassigned) [Example 20a], for which the IC50 amounted to 12 nM in assay [1] and 30 nM in assay [2].
`C=CC(=O)N1C[C@@H]2C[C@H]1CN2c1nc(=O)n2c3nc(c(F)cc13)-c1c(F)cccc1OCCCCc1ccnc(C(C)C)c1-2` [Example 104, 18,21-difluoro-6-(propan-2-yl)-2-[(1S,4S)-5-(prop-2-enoyl)-2,5-diazabicyclo[2.2.1]heptan-2-yl]-10,11,12,13-tetrahydro-4H-1,19-ethenopyrido[4,3-f]pyrimido[1,6-h][1,8,10]benzoxadiazacyclotridecin-4-one]: the half-inhibitory concentration (IC50) in assay [1] was 1470 nM; in assay [2] (Homo sapiens, NCI-H358, 2 h), 8850 nM.
With `C=CC(=O)N1CCN(c2nc(=O)n3c4nc(c(F)cc24)-c2c(F)cccc2OCCCc2ccnc(C(C)C)c2-3)C[C@@H]1CC#N` (single isomer, unassigned) [Example 11a], the IC50 in assay [1] came to 19 nM; in assay [2] (Homo sapiens, NCI-H358, 2 h), 395 nM.
